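Dose response: 5 concentrations. Exposure: 48 h. Format: 96-well plates. Endpoint: linear interpolation; highest concentration if not reached. GI50 = concentration required for 50% inhibition of growth. At the TGI there is no net growth.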
Experiments:
Experiment in all cases: NCI anticancer screen, dose series, 48 h
[1] = tested on: SK-MEL-5 melanoma
[2] = tested on: 786-0 renal
[3] = tested on: MALME-3M melanoma
[4] = tested on: SNB-75 CNS
[5] = tested on: SNB-19 CNS
[6] = tested on: NCI-H460 lung
[7] = tested on: U251 CNS
[8] = tested on: HCC-2998 colon
[9] = tested on: NCI-H522 lung
[10] = tested on: SW-620 colon
[11] = tested on: A498 renal
[12] = tested on: MCF7 breast
[13] = tested on: RPMI-8226 leukemia
[14] = tested on: ACHN renal
[15] = tested on: LOX IMVI melanoma
[16] = tested on: HOP-92 NSCLC
[17] = tested on: MDA-MB-231 breast
[18] = tested on: EKVX NSCLC
[19] = tested on: OVCAR-3 ovarian
[20] = tested on: RXF 393 renal
[21] = tested on: UO-31 renal
[22] = tested on: IGROV1 ovarian
[23] = tested on: UACC-257 melanoma
[24] = tested on: SF-539 CNS
[25] = tested on: SK-OV-3 ovarian
[26] = tested on: OVCAR-4 ovarian
[27] = tested on: SN12C renal
[28] = tested on: SR leukemia
[29] = tested on: NCI-H23 lung
[30] = tested on: MDA-MB-435
[31] = tested on: KM12 colon
[32] = tested on: DU-145 prostate
[33] = tested on: HCT-116 colon
[34] = tested on: OVCAR-8 ovarian
[35] = tested on: TK-10 renal
[36] = tested on: MOLT-4 leukemia
[37] = tested on: OVCAR-5 ovarian
[38] = tested on: HOP-62 NSCLC
[39] = tested on: M14 melanoma
[40] = tested on: T-47D breast
[41] = tested on: PC-3 prostate
[42] = tested on: SK-MEL-28 melanoma
[43] = tested on: HCT-15 colon
[44] = tested on: CAKI-1 renal
[45] = tested on: NCI/ADR-RES ovarian
[46] = tested on: SF-295 CNS
[47] = tested on: HS 578T breast
[48] = tested on: HT29 colon
[49] = tested on: K-562 leukemia
[50] = tested on: A549 NSCLC
[51] = tested on: HL-60(TB) leukemia
[52] = tested on: CCRF-CEM leukemia
[53] = tested on: SF-268 CNS
[54] = tested on: UACC-62 melanoma
[55] = tested on: NCI-H226 lung
[56] = tested on: SK-MEL-2 melanoma
[57] = tested on: COLO 205 colon

CC(N)(Cc1c[nH]c2cccc(F)c12)C(=O)O (centres undefined)
GI50 [1]: > 1 mM
TGI [1]: > 1000 µM
GI50 [2]: > 1 mM
TGI [2]: > 1000 µM
GI50 [3]: > 1 mM
TGI [3]: > 1000 µM
GI50 [4]: 405 µM
TGI [4]: > 1000 µM
GI50 [5]: > 1 mM
TGI [5]: > 1000 µM
GI50 [6]: > 1 mM
TGI [6]: > 1000 µM
GI50 [7]: > 1 mM
TGI [7]: > 1000 µM
GI50 [8]: > 1 mM
TGI [8]: > 1 mM
GI50 [9]: > 1 mM
TGI [9]: > 1000 µM
GI50 [10]: > 1 mM
TGI [10]: > 1000 µM
GI50 [11]: > 1 mM
TGI [11]: > 1000 µM
GI50 [12]: > 1 mM
TGI [12]: > 1000 µM
GI50 [13]: > 1 mM
TGI [13]: > 1000 µM
GI50 [14]: > 1 mM
TGI [14]: > 1000 µM
GI50 [15]: > 1 mM
TGI [15]: > 1 mM
TGI [16]: > 1000 µM
GI50 [17]: > 1 mM
TGI [17]: > 1000 µM
GI50 [18]: > 1 mM
TGI [18]: > 1 mM
GI50 [19]: > 1 mM
TGI [19]: > 1000 µM
GI50 [20]: > 1 mM
TGI [20]: > 1000 µM
GI50 [21]: 138 µM
TGI [21]: > 1000 µM
GI50 [22]: 364 µM
TGI [22]: > 1000 µM
GI50 [23]: > 1 mM
TGI [23]: > 1000 µM
GI50 [24]: > 1 mM
TGI [24]: > 1000 µM
GI50 [25]: 992 µM
TGI [25]: > 1000 µM
GI50 [26]: > 1 mM
TGI [26]: > 1000 µM
GI50 [27]: > 1 mM
TGI [27]: > 1000 µM
GI50 [28]: > 1 mM
TGI [28]: > 1 mM
GI50 [29]: > 1 mM
TGI [29]: > 1000 µM
GI50 [30]: > 1 mM
TGI [30]: > 1000 µM
GI50 [31]: > 1 mM
TGI [31]: > 1000 µM
GI50 [32]: > 1 mM
TGI [32]: > 1000 µM
GI50 [33]: > 1 mM
TGI [33]: > 1000 µM
GI50 [34]: > 1 mM
TGI [34]: > 1000 µM
GI50 [35]: > 1 mM
TGI [35]: > 1000 µM
GI50 [36]: > 1 mM
TGI [36]: > 1000 µM
GI50 [37]: > 1 mM
TGI [37]: > 1000 µM
GI50 [38]: 645 µM
TGI [38]: > 1000 µM
GI50 [39]: > 1 mM
TGI [39]: > 1000 µM
GI50 [40]: 978 µM
TGI [40]: > 1000 µM
GI50 [41]: > 1 mM
TGI [41]: > 1000 µM
GI50 [42]: > 1 mM
TGI [42]: > 1000 µM
GI50 [43]: > 1 mM
TGI [43]: > 1000 µM
GI50 [44]: > 1 mM
TGI [44]: > 1000 µM
GI50 [45]: > 1 mM
TGI [45]: > 1000 µM
GI50 [46]: > 1 mM
TGI [46]: > 1000 µM
GI50 [47]: 786 µM
TGI [47]: > 1000 µM
GI50 [48]: > 1 mM
TGI [48]: > 1000 µM
GI50 [49]: > 1 mM
TGI [49]: > 1000 µM
GI50 [50]: > 1 mM
TGI [50]: > 1000 µM
GI50 [51]: > 1 mM
TGI [51]: > 1000 µM
GI50 [52]: > 1 mM
TGI [52]: > 1 mM
GI50 [53]: > 1 mM
TGI [53]: > 1000 µM
GI50 [54]: > 1 mM
TGI [54]: > 1000 µM

NC(CSSCC(N)=NCC12CC3CC(CC(C3)C1)C2)=NCC12CC3CC(CC(C3)C1)C2
TGI [1]: 36.5 µM
TGI [2]: > 100 µM
TGI [3]: 33.6 µM
TGI [4]: 45.2 µM
TGI [5]: 41.5 µM
TGI [6]: > 100 µM
TGI [7]: 29 µM
TGI [9]: 38.6 µM
TGI [10]: 41.6 µM
TGI [11]: 51 µM
TGI [12]: > 100 µM
TGI [13]: 6.17 µM
TGI [14]: 26.6 µM
TGI [16]: 32.7 µM
TGI [17]: 16.2 µM
TGI [19]: 35.6 µM
TGI [20]: > 100 µM
TGI [21]: 46.7 µM
TGI [22]: 40.9 µM
TGI [23]: 30.5 µM
TGI [24]: 34.3 µM
TGI [25]: 36.5 µM
TGI [55]: 43.3 µM
TGI [26]: 45.3 µM
TGI [27]: 31.1 µM
TGI [29]: 32.3 µM
TGI [30]: 28.1 µM
TGI [31]: 29 µM
TGI [32]: 32.5 µM
TGI [33]: 80.9 µM
TGI [34]: 51.4 µM
TGI [35]: 36.3 µM
TGI [36]: 16.9 µM
TGI [37]: 34.2 µM
TGI [38]: > 100 µM
TGI [39]: 50.2 µM
TGI [40]: > 100 µM
TGI [41]: 29.9 µM
TGI [42]: 44.4 µM
TGI [43]: 25 µM
TGI [44]: 36.4 µM
TGI [45]: 33.8 µM
TGI [46]: 31.3 µM
TGI [47]: 50.7 µM
TGI [56]: 55.1 µM
TGI [48]: 28.4 µM
TGI [49]: 27.2 µM
TGI [50]: 31.3 µM
TGI [51]: 26.3 µM
TGI [53]: > 100 µM
TGI [54]: 26.1 µM
TGI [57]: 52.5 µM
